“Also recorded” adds a separate entry of the source.
Experiments:
[1] = ob/ob and db/db mice, 8 day administration; cited from earlier work
[2] = system: AMPK; experiment: AMPK activation in muscle cells; assay type: cell-based; conditions: different doses, FIG. 2
[3] = system: ROS production linked to the reverse electron flux through complex I; experiment: ROS production in rat liver after oral administration; assay type: in vivo; conditions: fasted Wistar rats, 50 mg/kg/day in drinking water for at least 10 days, succinate alone or with glutamate/malate
Procedure: (§1) The efficacy of 5,6-dihydro-4-dimethylamino-2-imino-6-methyl-1,3,5-triazine was tested if once administrated (50 mg/kg/day) to drinking water of fasted Wistar rats for at least 10 days. This approach was more physiological than subcutaneous injection at elevated dose. […] The effect was observed both in rat liver (FIG. 4) and in human micro-vascular endothelial cells (HMEC; Table 2).

[4] = system: synaptopodin (G1D4); experiment: Glomerular synaptopodin (G1D4) fraction in the kidney of ZDF rats; assay type: in vivo, rat; conditions: ZDF fatty rats, age 19 weeks; for Glomerular synaptopodin (G1D4) fraction, Positive Area (%): 2 × 25 mg/kg/d p.o., mean ± SEM
Procedure: Synaptopodin (G1D4) was detected with a monoclonal mouse IgG antibody (#61094, Progen). For each rat, 40 glomeruli out of two consecutive sections were selected at random. The synaptopodin (G1D4) positive area in the mesangium was measured with the Ariol SL-50 automated microscope (Applied Imaging Int. Ltd.) scanning sections at X20 (scale x/y: 1 pixel=0.36×0.36 μm^2) and setting a circular measure field of 2400 μm^2 in the centre of the glomerulus. The positive labeled area of synaptopodin (G1D4) was calculated as percentage of tissue area in the measure field. For each animal, the mean out of 40 glomeruli was calculated. Statistical comparisons were performed by unpaired Mann-Whitney-test. Data are mean±SEM.
The antibody clone G1D4 recognized differentiated podocytes (glomerular visceral epithelial cells).

[5] = system: human micro-vascular endothelial cells (HMEC-1); experiment: ROS production in HMEC-1; assay type: cell-based
Procedure: as §1

[6] = system: AMPK; experiment: AMPK activation in hepatocyte cells; assay type: cell-based; conditions: different doses, FIG. 1
Description: The AMPK activation in hepatocytes is given in the gel electrophoresis pictures. The supplemental diagram visualizes the degree of AMPK activation in hepatocytes quantitatively.

SMILES	reduction of blood glucose [1]	AMPK activity in muscle cells [2]	ROS production linked to the reverse electron flux through complex I [3]	glomerular fraction of synaptopodin (effect of treatment in words) [4]	Glomerular synaptopodin (G1D4) fraction, Positive Area (%) [4]	ROS production, H2O2 ([5]; substrate GMS, additions: None)	ROS production, H2O2 ([5]; substrate GMS, additions: Rot + antimycin A (AA))	ROS production, H2O2 ([5]; substrate GMS, additions: Rotenone (Rot))	ROS production, H2O2 ([5]; substrate Glutamate + Malate (GM), additions: None)	ROS production, H2O2 ([5]; substrate Glutamate + Malate (GM), additions: Rot + antimycin A (AA))	ROS production, H2O2 ([5]; substrate Glutamate + Malate (GM), additions: Rotenone (Rot))	ROS production, H2O2 ([5]; substrate Succinate (S), additions: None)	ROS production, H2O2 ([5]; substrate Succinate (S), additions: Rot + antimycin A (AA))	ROS production, H2O2 ([5]; substrate Succinate (S), additions: Rotenone (Rot))	AMPK activation in hepatocytes [6]
NC(=O)c1ncn([C@@H]2O[C@H](CO)[C@@H](O)[C@H]2O)c1N [AICAR, 5-aminoimidazole-4-caboxamide-1beta-riboside]	35%	–	–	–	–	–	–	–	–	–	–	–	–	–	–
CC1NC(=N)N=C(N(C)C)N1 (centres unmarked) [EMD008, 5,6-dihydro-4-dimethylamino-2-imino-6-methyl-1,3,5-triazine]	–	significantly increased AMPK activity; also recorded: dose dependent and even stronger than metformin's effect	time-dependently inhibited the ROS production	moderately increased	45 ± 3%	15.7 ± 1.4 pmol/min/10^7 HMEC-1 cells	18.6 ± 1.3 pmol/min/10^7 HMEC-1 cells	6.9 ± 1.1 pmol/min/10^7 HMEC-1 cells	28.4 ± 2.2 pmol/min/10^7 HMEC-1 cells	51.4 ± 8.7 pmol/min/10^7 HMEC-1 cells	37.5 ± 1.5 pmol/min/10^7 HMEC-1 cells	14.5 ± 1.3 pmol/min/10^7 HMEC-1 cells	19.1 ± 3.2 pmol/min/10^7 HMEC-1 cells	11.4 ± 2.7 pmol/min/10^7 HMEC-1 cells	significant activation of AMPK
CN(C)C(=N)NC(=N)N [Metformin, reference compound]	–	–	–	no effect	38 ± 4%	–	–	–	–	–	–	–	–	–	–

Source: patent US9035048B2, “Tetrahydrotriazine compounds for treating diseases associated with AMPK activity” (POXEL, priority 2008, dated 2015)
